# Data reported in patent US20170190671A1, “BIS(ARYL)CATECHOL DERIVATIVES AS HERBICIDES” (E I DU PONT DE NEMOURS AND COMPANY, priority 2014, published 2017).
# Columns and labels:
# [1] = system: galium (catchweed bedstraw, Galium aparine); assay: Test C postemergence; assay type: in vivo; settings: Galium, post-emergence, 336 h, Postemergence, scale 0 to 100, read-out: Plant response rating, Galium
# How it was run: (§1)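 Greenhouse test; preemergence to seeds in loam/sand soil, or postemergence spray to 2-18 cm, 1- to 4-leaf plants in peat/vermiculite medium; compound in non-phytotoxic solvent plus surfactant. Visual rating vs controls at 13-15 d, 0 = no effect, 100 = complete control.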
# soybean (Glycine max) = assay: Test C postemergence; assay type: in vivo; settings: Glycine max, post-emergence, Postemergence, scale 0 to 100, read-out: Plant response rating, Soybean
# How it was run: as §1
# [2] = system: large (Lg) crabgrass (Digitaria sanguinalis); assay: Test C postemergence; assay type: in vivo; settings: Digitaria sanguinalis, post-emergence, 336 h, Postemergence, scale 0 to 100, read-out: Plant response rating, Crabgrass, Large
# How it was run: as §1
# corn (Zea mays) = assay: Test C postemergence; assay type: in vivo; settings: Zea mays, post-emergence, 336 h, Postemergence, scale 0 to 100
# How it was run: as §1
# kochia (Kochia scoparia) = assay: Test C postemergence; assay type: in vivo; settings: Bassia scoparia, post-emergence, Postemergence, scale 0 to 100, read-out: Plant response rating, Kochia
# How it was run: as §1
# [3] = system: johnsongrass (Sorghum halepense); assay: Test C postemergence; assay type: in vivo; settings: Sorghum halepense, post-emergence, 336 h, Postemergence, scale 0 to 100, read-out: Plant response rating, Johnsongrass
# How it was run: as §1
# [4] = system: ragweed (common ragweed, Ambrosia elatior); assay: Test C postemergence; assay type: in vivo; settings: Ambrosia artemisiifolia, post-emergence, 336 h, Postemergence, scale 0 to 100, read-out: Plant response rating, Ragweed
# How it was run: as §1
# [5] = system: Italian ryegrass (Lolium multiflorum); assay: Test C postemergence; assay type: in vivo; settings: Lolium multiflorum, post-emergence, 336 h, Postemergence, scale 0 to 100, read-out: Plant response rating, Ryegrass, Italian
# How it was run: as §1
# wild oat (Avena fatua) = assay: Test C postemergence; assay type: in vivo; settings: Avena fatua, post-emergence, Postemergence, scale 0 to 100, read-out: Plant response rating, Oat, Wild
# How it was run: as §1
# [6] = system: oilseed rape (Brassica napus); assay: Test C postemergence; assay type: in vivo; settings: Brassica napus, post-emergence, Postemergence, scale 0 to 100, read-out: Plant response rating, Oilseed Rape
# How it was run: as §1
# [7] = system: winter wheat (Triticum aestivum); assay: Test C postemergence; assay type: in vivo; settings: Triticum aestivum, post-emergence, 336 h, Postemergence, scale 0 to 100, read-out: Plant response rating, Wheat
# How it was run: as §1
# [8] = system: waterhemp (common waterhemp, Amaranthus rudis); assay: Test C postemergence; assay type: in vivo; settings: Amaranthus tuberculatus, post-emergence, Postemergence, scale 0 to 100, read-out: Plant response rating, Waterhemp
# How it was run: as §1
# [9] = system: morningglory (Ipomoea coccinea); assay: Test C postemergence; assay type: in vivo; settings: Ipomoea, post-emergence, 336 h, Postemergence, scale 0 to 100, read-out: Plant response rating, Morningglory
# How it was run: as §1
# [10] = system: pigweed (Amaranthus retroflexus); assay: Test C postemergence; assay type: in vivo; settings: Amaranthus retroflexus, post-emergence, 336 h, Postemergence, scale 0 to 100, read-out: Plant response rating, Pigweed
# How it was run: as §1
# [11] = system: barnyardgrass (Echinochloa crus-galli); assay: Test C postemergence; assay type: in vivo; settings: Echinochloa crus-galli, post-emergence, Postemergence, scale 0 to 100, read-out: Plant response rating, Barnyardgrass
# How it was run: as §1
smiles,measurement,setting,value
"Fc1cccc(Oc2ncc(Cl)cn2)c1Oc1ncc(Br)cn1 [Compound 27, 5-bromo-2-[2-fluoro-6-[(5-chloro-2-pyrimidinyl)oxy]phenoxy]pyrimidine]",melting point,,145 to 148 °C
same,pest or weed control at 31 g/ha,[1]; 31 g ai/ha,70%
same,pest or weed control at 62 g/ha,[1]; 62 g ai/ha,90%
same,pest or weed control at 125 g/ha,[1]; 125 g ai/ha,95%
same,pest or weed control at 250 g/ha,[1]; 250 g ai/ha,95%
same,plant injury at 31 g/ha,soybean (Glycine max); 31 g ai/ha,65%
same,plant injury at 62 g/ha,soybean (Glycine max); 62 g ai/ha,75%
same,plant injury at 125 g/ha,soybean (Glycine max); 125 g ai/ha,90%
same,plant injury at 250 g/ha,soybean (Glycine max); 250 g ai/ha,90%
same,pest or weed control at 31 g/ha,[2]; 31 g ai/ha,5%
same,pest or weed control at 62 g/ha,[2]; 62 g ai/ha,5%
same,pest or weed control at 125 g/ha,[2]; 125 g ai/ha,10%
same,pest or weed control at 250 g/ha,[2]; 250 g ai/ha,20%
same,"Corn plant response rating (crop injury, 0 = no effect, 100 = complete kill) at 31 g/ha",corn (Zea mays); 31 g ai/ha,10%
same,"Corn plant response rating (crop injury, 0 = no effect, 100 = complete kill) at 62 g/ha",corn (Zea mays); 62 g ai/ha,15%
same,"Corn plant response rating (crop injury, 0 = no effect, 100 = complete kill) at 125 g/ha",corn (Zea mays); 125 g ai/ha,20%
same,"Corn plant response rating (crop injury, 0 = no effect, 100 = complete kill) at 250 g/ha",corn (Zea mays); 250 g ai/ha,25%
same,pest or weed control at 31 g/ha,kochia (Kochia scoparia); 31 g ai/ha,40%
same,pest or weed control at 62 g/ha,kochia (Kochia scoparia); 62 g ai/ha,80%
same,pest or weed control at 125 g/ha,kochia (Kochia scoparia); 125 g ai/ha,85%
same,pest or weed control at 250 g/ha,kochia (Kochia scoparia); 250 g ai/ha,95%
same,pest or weed control at 31 g/ha,[3]; 31 g ai/ha,0%
same,pest or weed control at 62 g/ha,[3]; 62 g ai/ha,5%
same,pest or weed control at 125 g/ha,[3]; 125 g ai/ha,5%
same,pest or weed control at 250 g/ha,[3]; 250 g ai/ha,10%
same,pest or weed control at 31 g/ha,[4]; 31 g ai/ha,15%
same,pest or weed control at 62 g/ha,[4]; 62 g ai/ha,35%
same,pest or weed control at 125 g/ha,[4]; 125 g ai/ha,60%
same,pest or weed control at 250 g/ha,[4]; 250 g ai/ha,80%
same,pest or weed control at 31 g/ha,[5]; 31 g ai/ha,0%
same,pest or weed control at 62 g/ha,[5]; 62 g ai/ha,0%
same,pest or weed control at 125 g/ha,[5]; 125 g ai/ha,5%
same,pest or weed control at 250 g/ha,[5]; 250 g ai/ha,5%
same,pest or weed control at 31 g/ha,wild oat (Avena fatua); 31 g ai/ha,0%
same,pest or weed control at 62 g/ha,wild oat (Avena fatua); 62 g ai/ha,5%
same,pest or weed control at 125 g/ha,wild oat (Avena fatua); 125 g ai/ha,10%
same,pest or weed control at 250 g/ha,wild oat (Avena fatua); 250 g ai/ha,15%
same,plant injury at 31 g/ha,[6]; 31 g ai/ha,30%
same,plant injury at 62 g/ha,[6]; 62 g ai/ha,50%
same,plant injury at 125 g/ha,[6]; 125 g ai/ha,55%
same,plant injury at 250 g/ha,[6]; 250 g ai/ha,60%
same,plant injury at 31 g/ha,[7]; 31 g ai/ha,0%
same,plant injury at 62 g/ha,[7]; 62 g ai/ha,0%
same,plant injury at 125 g/ha,[7]; 125 g ai/ha,0%
same,plant injury at 250 g/ha,[7]; 250 g ai/ha,0%
same,pest or weed control at 31 g/ha,[8]; 31 g ai/ha,70%
same,pest or weed control at 62 g/ha,[8]; 62 g ai/ha,75%
same,pest or weed control at 125 g/ha,[8]; 125 g ai/ha,90%
same,pest or weed control at 250 g/ha,[8]; 250 g ai/ha,100%
same,pest or weed control at 31 g/ha,[9]; 31 g ai/ha,65%
same,pest or weed control at 62 g/ha,[9]; 62 g ai/ha,75%
same,pest or weed control at 125 g/ha,[9]; 125 g ai/ha,70%
same,pest or weed control at 250 g/ha,[9]; 250 g ai/ha,90%
same,pest or weed control at 31 g/ha,[10]; 31 g ai/ha,85%
same,pest or weed control at 62 g/ha,[10]; 62 g ai/ha,90%
same,pest or weed control at 125 g/ha,[10]; 125 g ai/ha,95%
same,pest or weed control at 250 g/ha,[10]; 250 g ai/ha,98%
same,pest or weed control at 31 g/ha,[11]; 31 g ai/ha,5%
same,pest or weed control at 62 g/ha,[11]; 62 g ai/ha,5%
same,pest or weed control at 125 g/ha,[11]; 125 g ai/ha,5%
same,pest or weed control at 250 g/ha,[11]; 250 g ai/ha,5%
